Experimental findings from ChEMBL document CHEMBL1135751, “A trypanocidal phenazine derived from beta-lapachone” (2002) are described below.

For this experiment, the system named is Trypanosoma cruzi. Nature of the experiment: Trypanocidal effect on bloodstream trypomastigotes of Trypanosoma cruzi; ED50/24h. Format: functional.

Regarding `CC1(C)CCc2c(c3ccccc3c3nc4cc(Nc5ccccc5)/c(=N/c5ccccc5)cc-4n(-c4ccccc4)c23)O1`, the ED50 came to 61.3 µM. For `CN(C)c1ccc(C(=C2C=CC(=[N+](C)C)C=C2)c2ccc(N(C)C)cc2)cc1` the value was 536 µM.
